{
  "source": "patent US6777544B2",
  "about": "“Polyamide nucleic acid derivatives and agents and processes for preparing them” (Aventis Pharma Deutschland GmbH, priority 2000, dated 2004)",
  "key": {"complementary RNA": {"system": "complementary RNA", "assay": "Melting temperature (Tm) of PNA with complementary RNA", "format": "binding", "settings": "140 mM KCl, 10 mM sodium dihydrogen phosphate, 0.1 mM EDTA (pH 7.4); oligomer 0.5 to 1 OD260 per ml", "protocol": "(§1) The melting temperatures were determined using an HP 8452A diode-array spectrophotometer, an HP 89090A Peltier element, and HP Temperature Control Software Rev. B5.1 (from Hewlett Packard). Measurements were taken in 0.5° C./min steps in 140 mM KCl, 10 mM sodium dihydrogen phosphate, 0.1 mM EDTA (pH 7.4) as the buffer. The oligomer concentration was from 0.5 to 1 OD260 per ml."}, "complementary DNA": {"system": "complementary DNA", "assay": "Melting temperature (Tm) of PNA with complementary DNA", "format": "binding", "settings": "140 mM KCl, 10 mM sodium dihydrogen phosphate, 0.1 mM EDTA (pH 7.4); oligomer 0.5 to 1 OD260 per ml", "protocol": "as §1"}, "COS cells": {"system": "COS cells", "assay": "Cell uptake after fluorescence labeling (fluorescence microscopy)", "format": "cell-based", "settings": "PNA solution 10 μM, 37° C., examined after 2, 4 and 16 hours, C-terminally fluorescein-labeled, compared with labeled PNA-6", "protocol": "COS cells were allowed to grow to confluence in Dulbecco's MEM (DMEM), which had been supplemented with 10% FCS, in 5 cm Petri dishes. The cells were washed twice with serum-free DM EM. An area of approx. 1 cm^2 was scratched out in the middle of the Petri dish using a sterile needle. The PNA solution (10 μM) under investigation was applied in this area. The dish was incubated at 37° C. under a CO2 atmosphere. After 2, 4, and 16 hours, the cells were examined by fluorescence microscopy. For this, the cells were washed four times with serum-free DM EM, covered with a cover slip, and evaluated under the fluorescence microscope or by phase contrast.\nIn order to investigate the cell uptake, PNA-6 and PNA-13 were labeled as indicated directly below with fluorescein at the C terminus and then examined microscopically."}, "REH cells": {"system": "REH cells", "assay": "Inhibiting cell proliferation (cell density)", "format": "cell-based, human", "settings": "10 μM", "protocol": "The sequence of PNA-13 is directed against the translation start of the Ha-ras mRNA. REH cells (human pre-B leukemia cells, DSM ACC 22) or A549 tumor cells were cultured, at 37° C. and under 5% CO2, in OptiMEM (Gibco BRL) containing 10% fetal calf serum (FCS, GIBCO-BRL). The cell density for the assay was approx. 1×10^6/ml. The PNA-13 (10 μM) was incubated with the cells in 24-well plates. After incubating at 37° C. and under 5% CO2 for 96 hours, the cell density was determined. Mean values for the cell density were determined from 3 individual wells at a given PNA concentration."}},
  "data": [
    {"substance": "Fluorescein-p-{t(oeg) at tcc gtc at}-hex (TATTCCGTCAT; chemistry not fully specified) [PNA-14]", "values": [
      {"measurement": "Tm (RNA)", "setting": "complementary RNA", "value": 56.7, "unit": "°C"},
      {"measurement": "Tm (DNA)", "setting": "complementary DNA", "value": 42.5, "unit": "°C"}
    ]},
    {"substance": "Biotin-p-{t(oeg) at tcc gtc at}-hex [PNA-12]", "values": [
      {"measurement": "Tm (RNA)", "setting": "complementary RNA", "value": 57.9, "unit": "°C"},
      {"measurement": "Tm (DNA)", "setting": "complementary DNA", "value": 43.6, "unit": "°C"}
    ]},
    {"substance": "Ac-HN-tat tcc gtc at-hex [Reference, reference compound]", "values": [
      {"measurement": "Tm (RNA)", "setting": "complementary RNA", "value": 56.6, "unit": "°C"},
      {"measurement": "Tm (DNA)", "setting": "complementary DNA", "value": 41.9, "unit": "°C"}
    ]},
    {"substance": "Hexadecyl-O-p-{t(oeg) at tcc gtc at}-hex (TATTCCGTCAT; chemistry not fully specified) [PNA-13]", "values": [
      {"measurement": "Tm (RNA)", "setting": "complementary RNA", "value": 58.9, "unit": "°C"},
      {"measurement": "Tm (DNA)", "setting": "complementary DNA", "value": 46.7, "unit": "°C"},
      {"measurement": "cell uptake", "setting": "COS cells", "value": "taken up more efficiently into the cells"},
      {"measurement": "inhibition of cell proliferation", "setting": "REH cells; 96 hours, 37° C., 5% CO2", "value": "inhibits proliferation of the REH cells"},
      {"measurement": "inhibition of proliferation compared with a corresponding phosphorothioate oligonucleotide", "setting": "REH cells; after >4 days of incubation", "value": "greater than that brought about by a corresponding phosphorothioate oligonucleotide"}
    ]},
    {"substance": "Phosphate-{t(oeg)-at tcc gtc at}-hex (TATTCCGTCAT; chemistry not fully specified) [PNA-6]", "values": [
      {"measurement": "Tm (RNA)", "setting": "complementary RNA", "value": 57.5, "unit": "°C"},
      {"measurement": "Tm (DNA)", "setting": "complementary DNA", "value": 44.0, "unit": "°C"}
    ]}
  ]
}
